± gives the standard deviation of the averaged measurements.
Tests used:
[1] = compound: C[C@@H]1CN(CC(=O)Nc2ccc3c(c2)Cc2cccc(-c4cc(=O)cc(N5CCOCC5)o4)c2S3)C[C@H](C)O1; assay: surviving fraction relative to DMSO-only wells; higher = less growth inhibition; conditions: exposure time: 5 days
Procedure, shortened: (§1)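 Tumour cell lines in log phase were plated in 384-well plates at 250–500 cells per well, then, after 24 hours, exposed continuously for five days to inhibitors at 0.5, 1, 5, 10, 50, 100, 500 and 1000 nM. Viability came from CellTiter-Glo luminescence, and surviving fraction is that signal normalised to the median of DMSO-only wells. Plates were read after 10 minutes at room temperature, and each line, screened three times, was kept only when replicate Pearson r was >0.7 and median Z' was >0.3.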

CABOZANTINIB = compound: COc1cc2nccc(Oc3ccc(NC(=O)C4(C(=O)Nc5ccc(F)cc5)CC4)cc3)c2cc1OC [CABOZANTINIB]; assay: as above; conditions: exposure time: 5 days
Procedure, shortened: as §1

Test System | surviving fraction ([1]; 0.5 nM) | surviving fraction ([1]; 1 nM) | surviving fraction ([1]; 5 nM) | surviving fraction ([1]; 10 nM) | surviving fraction ([1]; 50 nM) | surviving fraction ([1]; 100 nM) | surviving fraction ([1]; 500 nM) | surviving fraction ([1]; 1000 nM) | surviving fraction (CABOZANTINIB; 0.5 nM) | surviving fraction (CABOZANTINIB; 1 nM) | surviving fraction (CABOZANTINIB; 5 nM) | surviving fraction (CABOZANTINIB; 10 nM) | surviving fraction (CABOZANTINIB; 50 nM) | surviving fraction (CABOZANTINIB; 100 nM) | surviving fraction (CABOZANTINIB; 500 nM) | surviving fraction (CABOZANTINIB; 1000 nM)
HCC1395 BREAST | 0.955 ± 0.14 | 0.962 ± 0.022 | 0.936 ± 0.062 | 0.936 ± 0.035 | 0.92 ± 0.072 | 0.995 ± 0.08 | 0.919 ± 0.09 | 0.965 ± 0.12 | 1.12 ± 0.073 | 1.02 ± 0.06 | 1.14 ± 0.045 | 1.23 ± 0.034 | 1.38 ± 0.14 | 1.33 ± 0.053 | 1.13 ± 0.085 | 1.2 ± 0.086
HCC1806 BREAST | 1.05 ± 0.14 | 1.07 ± 0.086 | 1.12 ± 0.08 | 1.1 ± 0.035 | 0.959 ± 0.067 | 0.949 ± 0.12 | 0.699 ± 0.065 | 0.477 ± 0.024 | 0.863 ± 0.075 | 1.06 ± 0.057 | 1.092 ± 0.0075 | 1.06 ± 0.073 | 1.19 ± 0.078 | 1.08 ± 0.12 | 1.08 ± 0.021 | 1.09 ± 0.13
HCC1954 BREAST | 0.9487 ± 0.0025 | 0.93 ± 0.092 | 0.875 ± 0.086 | 1.03 ± 0.11 | 0.742 ± 0.01 | 0.771 ± 0.051 | 0.604 ± 0.09 | 0.504 ± 0.12 | 0.955 ± 0.018 | 1.04 ± 0.02 | 1.03 ± 0.13 | 1.02 ± 0.16 | 1.1 ± 0.073 | 0.921 ± 0.0035 | 1.0215 ± 0.00071 | 1.02 ± 0.055
HCT15 LARGE INTESTINE | 1.05 ± 0.017 | 1.04 ± 0.061 | 1.05 ± 0.05 | 1.05 ± 0.052 | 1 ± 0.066 | 1.01 ± 0.041 | 1.05 ± 0.052 | 1.08 ± 0.017 | 0.952 ± 0.044 | 0.95 ± 0.06 | 0.943 ± 0.044 | 0.951 ± 0.073 | 0.966 ± 0.036 | 1.02 ± 0.037 | 0.994 ± 0.065 | 1.04 ± 0.06
HELA CERVIX | 1.1 ± 0.048 | 1.06 ± 0.049 | 1.115 ± 0.011 | 1.06 ± 0.039 | 1.13 ± 0.03 | 1.11 ± 0.021 | 1.21 ± 0.029 | 1.22 ± 0.072 | 1.01 ± 0.028 | 0.98 ± 0.021 | 0.999 ± 0.033 | 0.955 ± 0.042 | 1.08 ± 0.036 | 1.06 ± 0.05 | 1.11 ± 0.088 | 1.1 ± 0.028
HOS BONE | 1.03 ± 0.041 | 1.02 ± 0.032 | 1.06 ± 0.027 | 1.06 ± 0.05 | 1.02 ± 0.039 | 1.01 ± 0.022 | 0.988 ± 0.044 | 0.901 ± 0.048 | 1.02 ± 0.011 | 1.001 ± 0.001 | 1.02 ± 0.015 | 0.9757 ± 0.008 | 1.015 ± 0.0092 | 0.984 ± 0.02 | 0.924 ± 0.019 | 0.89 ± 0.014
HOSMNG BONE | 1 ± 0.065 | 0.944 ± 0.013 | 0.982 ± 0.051 | 0.978 ± 0.044 | 1.03 ± 0.011 | 0.9887 ± 0.0031 | 1.01 ± 0.043 | 0.998 ± 0.056 | 0.961 ± 0.061 | 0.984 ± 0.053 | 0.885 ± 0.036 | 0.913 ± 0.1 | 0.833 ± 0.038 | 0.839 ± 0.018 | 0.314 ± 0.0085 | 0.274 ± 0.011
HSSYII SYNOVIAL | 0.975 ± 0.027 | 0.956 ± 0.032 | 0.931 ± 0.015 | 0.99 ± 0.041 | 0.891 ± 0.011 | 0.867 ± 0.043 | 0.84 ± 0.055 | 0.74 ± 0.041 | 0.909 ± 0.022 | 0.927 ± 0.067 | 0.935 ± 0.048 | 0.923 ± 0.025 | 0.963 ± 0.071 | 0.888 ± 0.014 | 0.787 ± 0.0083 | 0.671 ± 0.043
HT1080 SOFT TISSUE | 1.01 ± 0.026 | 1.04 ± 0.027 | 1.01 ± 0.04 | 1.02 ± 0.022 | 0.987 ± 0.054 | 1.01 ± 0.051 | 0.962 ± 0.016 | 0.846 ± 0.029 | 1.05 ± 0.025 | 0.999 ± 0.021 | 1.01 ± 0.021 | 1.03 ± 0.013 | 1.01 ± 0.022 | 1.01 ± 0.014 | 0.973 ± 0.0017 | 0.965 ± 0.033
HU09 BONE | 0.994 ± 0.096 | 0.996 ± 0.1 | 1.13 ± 0.061 | 1.1 ± 0.14 | 1.03 ± 0.12 | 1.42 ± 0.58 | 0.778 ± 0.065 | 0.763 ± 0.14 | 0.945 ± 0.084 | 0.999 ± 0.11 | 0.978 ± 0.055 | 1.02 ± 0.13 | 0.885 ± 0.096 | 0.638 ± 0.06 | 0.452 ± 0.043 | 0.338 ± 0.034
HUO3N1 BONE | 1.01 ± 0.026 | 1 ± 0.031 | 1.05 ± 0.041 | 1.04 ± 0.041 | 1.04 ± 0.023 | 1.03 ± 0.025 | 0.979 ± 0.027 | 0.907 ± 0.026 | 1.05 ± 0.034 | 1.05 ± 0.066 | 1.02 ± 0.025 | 0.953 ± 0.0036 | 0.916 ± 0.014 | 0.861 ± 0.021 | 0.742 ± 0.07 | 0.666 ± 0.008
JIMT1 BREAST | 0.91 ± 0.034 | 0.924 ± 0.022 | 0.936 ± 0.02 | 0.952 ± 0.031 | 0.956 ± 0.013 | 1 ± 0.038 | 0.971 ± 0.03 | 0.887 ± 0.024 | 1.03 ± 0.049 | 1.04 ± 0.025 | 1.07 ± 0.029 | 1.04 ± 0.049 | 1.13 ± 0.048 | 1.1 ± 0.033 | 1.04 ± 0.043 | 1 ± 0.039
JURKAT HAEMATOPOIETIC AND LYMPHOID TISSUE | 1.1 ± 0.013 | 1.123 ± 0.0098 | 1.08 ± 0.016 | 1.09 ± 0.026 | 1.05 ± 0.026 | 1.03 ± 0.029 | 1.01 ± 0.018 | 0.96 ± 0.029 | 1.07 ± 0.015 | 1.03 ± 0.014 | 1.05 ± 0.042 | 1.05 ± 0.022 | 0.998 ± 0.036 | 0.985 ± 0.017 | 1.04 ± 0.021 | 0.972 ± 0.0044
KPD BONE | 0.979 ± 0.039 | 0.946 ± 0.05 | 1.02 ± 0.047 | 1.01 ± 0.068 | 1 ± 0.092 | 1.01 ± 0.049 | 0.865 ± 0.02 | 0.7 ± 0.034 | 0.914 ± 0.031 | 0.985 ± 0.02 | 1.1 ± 0.045 | 1.04 ± 0.028 | 1.05 ± 0.036 | 1.03 ± 0.045 | 0.997 ± 0.068 | 0.956 ± 0.047
LM7 BONE | 0.909 ± 0.046 | 0.946 ± 0.031 | 0.94 ± 0.048 | 1.09 ± 0.064 | 0.947 ± 0.052 | 0.896 ± 0.033 | 0.798 ± 0.063 | 0.78 ± 0.097 | 1.03 ± 0.091 | 0.998 ± 0.039 | 1.07 ± 0.035 | 1.04 ± 0.053 | 1.06 ± 0.11 | 1.09 ± 0.019 | 0.932 ± 0.015 | 0.889 ± 0.036
LNCAP PROSTATE | 1.08 ± 0.12 | 1.12 ± 0.15 | 1.11 ± 0.11 | 1.12 ± 0.16 | 1.4 ± 0.029 | 1.43 ± 0.095 | 1.4 ± 0.11 | 1.21 ± 0.15 | 0.622 ± 0.084 | 1.02 ± 0.041 | 0.925 ± 0.05 | 0.897 ± 0.1 | 0.936 ± 0.042 | 0.976 ± 0.057 | 0.766 ± 0.013 | 0.383 ± 0.023
MCF7 BREAST | 0.946 ± 0.053 | 0.874 ± 0.035 | 0.902 ± 0.033 | 0.888 ± 0.012 | 0.99 ± 0.058 | 0.955 ± 0.03 | 0.933 ± 0.019 | 1 ± 0.06 | 0.907 ± 0.019 | 0.836 ± 0.012 | 0.852 ± 0.029 | 0.863 ± 0.033 | 0.889 ± 0.015 | 0.933 ± 0.032 | 0.88 ± 0.066 | 0.91 ± 0.075
MDAMB134 BREAST | 1.04 ± 0.082 | 0.967 ± 0.073 | 0.955 ± 0.11 | 0.926 ± 0.04 | 0.678 ± 0.16 | 0.714 ± 0.052 | 0.7305 ± 0.0021 | 0.63 ± 0.049 | 0.902 ± 0.12 | 0.888 ± 0.047 | 0.896 ± 0.13 | 1.04 ± 0.14 | 0.907 ± 0.23 | 0.943 ± 0.0042 | 0.955 ± 0.086 | 0.873 ± 0.086
MDAMB157 BREAST | 0.905 ± 0.074 | 0.972 ± 0.025 | 1.01 ± 0.057 | 1.09 ± 0.059 | 1 ± 0.028 | 1.05 ± 0.046 | 0.896 ± 0.022 | 0.89 ± 0.093 | 0.933 ± 0.056 | 0.953 ± 0.049 | 1 ± 0.025 | 0.959 ± 0.031 | 0.994 ± 0.048 | 0.891 ± 0.054 | 0.798 ± 0.072 | 0.733 ± 0.03
MDAMB231 BREAST | 0.965 ± 0.015 | 0.955 ± 0.016 | 0.993 ± 0.035 | 0.988 ± 0.023 | 0.955 ± 0.016 | 0.981 ± 0.021 | 0.73 ± 0.027 | 0.617 ± 0.025 | 0.853 ± 0.013 | 0.9576 ± 0.0047 | 0.969 ± 0.0068 | 0.978 ± 0.024 | 1.01 ± 0.018 | 1.005 ± 0.0054 | 0.908 ± 0.03 | 0.849 ± 0.019
MDAMB361 BREAST | 0.778 ± 0.042 | 0.885 ± 0.074 | 0.776 ± 0.078 | 0.756 ± 0.083 | 0.591 ± 0.036 | 0.765 ± 0.056 | 0.548 ± 0.045 | 0.529 ± 0.071 | 0.842 ± 0.099 | 0.796 ± 0.056 | 0.816 ± 0.042 | 0.844 ± 0.06 | 0.93 ± 0.081 | 0.887 ± 0.1 | 0.903 ± 0.054 | 0.89 ± 0.12

From the supplement of paper PMC6045584
